Reference: article PMC6105524 (Lipids, 2018)
Like-named read-outs stand apart in the source and are kept apart here. One block for each compound: values may come before it.

Columns and labels:
[1] = Plasma unlabeled fatty acid concentrations; type: in vivo, human
[2] = ref Domenichiello et al. 2014, Domenichiello et al. 2016, Metherel et al. 2018, cited from earlier work
[3] = compartmental modeling, humans; ref Pawlosky et al. 2001; cited from earlier work
[4] = type: in vivo, human; settings: for F (turnover of esterified n-3 HUFA in plasma): Jsyn / amount in plasma total lipids; for Time first detected in plasma: after beginning infusion; for Total esterified amount in plasma at 7 h: 7 h of infusion
[5] = subject S01, unlabeled, mean of 17 time points, low linoleate diet
[6] = subject S02, unlabeled, mean of 17 time points, low linoleate diet
[7] = subject S01, 8 h iv infusion of d5-ALA-albumin 0.78 mg/kg BW/hr
[8] = subject S01, k1 x unesterified ALA 2.52 nmol/mL
[9] = subject S02, 8 h iv infusion of d5-ALA-albumin 0.78 mg/kg BW/hr
[10] = subject S02, k1 x unesterified ALA 4.74 nmol/mL

Compound: CCCCCCCCCCCCCC(=O)O [14:0]
Fatty acid concentration in plasma total lipids (mean) [1, 5]: 43.9 nmol/mL
Fatty acid concentration in plasma total lipids (mean) [1, 6]: 36.8 nmol/mL

Compound: CCCCCCCCCCCCCCCC(=O)O [16:0]
Fatty acid concentration in plasma total lipids (mean) [1, 5]: 1265 nmol/mL
Fatty acid concentration in plasma total lipids (mean) [1, 6]: 1152 nmol/mL

Compound: CCCCCC/C=C\CCCCCCCC(=O)O [16:1n-7]
Fatty acid concentration in plasma total lipids (mean) [1, 5]: 153 nmol/mL
Fatty acid concentration in plasma total lipids (mean) [1, 6]: 91.9 nmol/mL

Compound: CCCCCCCCCCCCCCCCCC(=O)O [18:0]
Fatty acid concentration in plasma total lipids (mean) [1, 5]: 367 nmol/mL
Fatty acid concentration in plasma total lipids (mean) [1, 6]: 374 nmol/mL

Compound: CCCCCC/C=C/CCCCCCCCCC(=O)O [18:1n-7]
Fatty acid concentration in plasma total lipids (mean) [1, 5]: 98.0 nmol/mL
Fatty acid concentration in plasma total lipids (mean) [1, 6]: 104 nmol/mL

Fatty acid concentration in plasma total lipids (mean) ([1]; in vivo): 896 nmol/mL
Compound: CCCCCCCC/C=C\CCCCCCCC(=O)O [18:1n-9]

Compound: CCCCC/C=C\C/C=C\C/C=C\CCCCC(=O)O [18:3n-6]
Fatty acid concentration in plasma total lipids (mean) [1, 5]: 15.3 nmol/mL
Fatty acid concentration in plasma total lipids (mean) [1, 6]: 12.3 nmol/mL

Compound: CCCCCCCC/C=C\CCCCCCCCCC(=O)O [20:1n-9]
Fatty acid concentration in plasma total lipids (mean) [1, 5]: 7.8 nmol/mL
Fatty acid concentration in plasma total lipids (mean) [1, 6]: 9.3 nmol/mL

Compound: CCCCC/C=C\C/C=C\CCCCCCCCCC(=O)O [20:2n-6]
Fatty acid concentration in plasma total lipids (mean) [1, 5]: 8.6 nmol/mL
Fatty acid concentration in plasma total lipids (mean) [1, 6]: 13.6 nmol/mL

Compound: CCCCC/C=C\C/C=C\C/C=C\CCCCCCC(=O)O [20:3n-6]
Fatty acid concentration in plasma total lipids (mean) [1, 5]: 98.2 nmol/mL
Fatty acid concentration in plasma total lipids (mean) [1, 6]: 79.1 nmol/mL

Compound: CCCCCCCCCCCCCCCCCCCCCC(=O)O [22:0]
Fatty acid concentration in plasma total lipids (mean) [1, 5]: 30.5 nmol/mL
Fatty acid concentration in plasma total lipids (mean) [1, 6]: 17.4 nmol/mL

Compound: CCCCC/C=C\C/C=C\C/C=C\C/C=C\CCCCCC(=O)O [22:4n-6]
Fatty acid concentration in plasma total lipids (mean) [1, 5]: 9.6 nmol/mL
Fatty acid concentration in plasma total lipids (mean) [1, 6]: 8.5 nmol/mL

Compound: CCCCC/C=C\C/C=C\C/C=C\C/C=C\C/C=C\CCC(=O)O [22:5n-6]
Fatty acid concentration in plasma total lipids (mean) [1, 5]: 16.8 nmol/mL
Fatty acid concentration in plasma total lipids (mean) [1, 6]: 8.0 nmol/mL

Compound: CCCCCCCCCCCCCCCCCCCCCCCC(=O)O [24:0]
Fatty acid concentration in plasma total lipids (mean) [1, 5]: 21.5 nmol/mL
Fatty acid concentration in plasma total lipids (mean) [1, 6]: 15.2 nmol/mL

Compound: CCCCCCCC/C=C\CCCCCCCCCCCCCC(=O)O [24:1n-9]
Fatty acid concentration in plasma total lipids (mean) [1, 5]: 48.1 nmol/mL
Fatty acid concentration in plasma total lipids (mean) [1, 6]: 21.8 nmol/mL

Compound: CC/C=C\C/C=C\C/C=C\CCCCCCCC(=O)O [ALA, α-linolenic acid]
Plasma concentration of unesterified unlabeled ALA ([1]; subject S01): 2.52 µM
Fatty acid concentration in plasma total lipids (mean) [1, 5]: 24.3 nmol/mL
Plasma concentration of unesterified unlabeled ALA ([1]; subject S02): 4.74 µM
Fatty acid concentration in plasma total lipids (mean) [1, 6]: 33.5 nmol/mL

Smax (maximal first derivative of plasma total amount time-course of newly synthesized d5-n-3 HUFA) ([4]; subject S01): 0.67 nmol/min
k1 (synthesis-secretion coefficient) ([4]; subject S01): 0.39 mL/min
Time at Smax [4, 7]: 109 min
F (turnover of esterified n-3 HUFA in plasma) ([4]; subject S01): 2.6e-06 min⁻¹
Jsyn (whole body synthesis-secretion rate from circulating unesterified 18:3n-3) [4, 8]: 0.99 nmol/min
Smax (maximal first derivative of plasma total amount time-course of newly synthesized d5-n-3 HUFA) ([4]; subject S02): 0.21 nmol/min
k1 (synthesis-secretion coefficient) ([4]; subject S02): 0.12 mL/min
Time at Smax [4, 9]: 125 min
F (turnover of esterified n-3 HUFA in plasma) ([4]; subject S02): 3.7e-06 min⁻¹
Jsyn (whole body synthesis-secretion rate from circulating unesterified 18:3n-3) [4, 10]: 0.56 nmol/min
Compound: CC/C=C\C/C=C\C/C=C\C/C=C\C/C=C\C/C=C\CCC(=O)O [DHA, Docosahexaenoic acid]
Whole body synthesis-secretion rate of DHA from circulating ALA ([2]; rats consuming a high ALA diet): 1.5 µmol/day
Whole body synthesis-secretion rate of DHA from circulating ALA ([2]; rats consuming a low ALA containing diet): 0.045 µmol/day
Rate of mass flow from immediate precursor [3]: 0.464 µmol/day

Smax (maximal first derivative of plasma total amount time-course of newly synthesized d5-n-3 HUFA) ([4]; subject S01): 2.43 nmol/min
k1 (synthesis-secretion coefficient) ([4]; subject S01): 1.44 mL/min
Time at Smax [4, 7]: 94 min
F (turnover of esterified n-3 HUFA in plasma) ([4]; subject S01): 8.8e-05 min⁻¹
Jsyn (whole body synthesis-secretion rate from circulating unesterified 18:3n-3) [4, 8]: 3.62 nmol/min
Smax (maximal first derivative of plasma total amount time-course of newly synthesized d5-n-3 HUFA) ([4]; subject S02): 4.14 nmol/min
k1 (synthesis-secretion coefficient) ([4]; subject S02): 2.32 mL/min
Time at Smax [4, 9]: 156 min
F (turnover of esterified n-3 HUFA in plasma) ([4]; subject S02): 0.00019 min⁻¹
Jsyn (whole body synthesis-secretion rate from circulating unesterified 18:3n-3) [4, 10]: 11.0 nmol/min
Compound: CC/C=C\C/C=C\C/C=C\C/C=C\C/C=C\CCCCCC(=O)O [DPAn-3, docosapentaenoic acid]
Rate of mass flow from immediate precursor [3]: 0.075 µmol/day

Smax (maximal first derivative of plasma total amount time-course of newly synthesized d5-n-3 HUFA) ([4]; subject S01): 3.23 nmol/min
k1 (synthesis-secretion coefficient) ([4]; subject S01): 1.91 mL/min
Time at Smax [4, 7]: 190 min
F (turnover of esterified n-3 HUFA in plasma) ([4]; subject S01): 7.7e-05 min⁻¹
Jsyn (whole body synthesis-secretion rate from circulating unesterified 18:3n-3) [4, 8]: 4.81 nmol/min
Smax (maximal first derivative of plasma total amount time-course of newly synthesized d5-n-3 HUFA) ([4]; subject S02): 2.29 nmol/min
k1 (synthesis-secretion coefficient) ([4]; subject S02): 1.29 mL/min
Time at Smax [4, 9]: 215 min
F (turnover of esterified n-3 HUFA in plasma) ([4]; subject S02): 0.00015 min⁻¹
Jsyn (whole body synthesis-secretion rate from circulating unesterified 18:3n-3) [4, 10]: 6.09 nmol/min
Compound: CC/C=C\C/C=C\C/C=C\C/C=C\C/C=C\CCCC(=O)O [EPA, eicosapentaenoic acid]
Rate of mass flow from immediate precursor [3]: 0.021 µmol/day

Compound: CC/C=C\C/C=C\C/C=C\C/C=C\C/C=C\CCCCCCCC(=O)O [TPAn-3, tetracosapentaenoic acid]
Fatty acid concentration in plasma total lipids (mean) [1, 5]: 2.1 nmol/mL
Fatty acid concentration in plasma total lipids (mean) [1, 6]: 2.0 nmol/mL
Jsyn (whole-body synthesis-secretion rate) ([4]; both subjects): 0.5 to 0.6 nmol/min
Smax (maximal first derivative of plasma total amount time-course of newly synthesized d5-n-3 HUFA) ([4]; subject S01): 0.39 nmol/min
k1 (synthesis-secretion coefficient) ([4]; subject S01): 0.23 mL/min
Time at Smax [4, 7]: 98 min
F (turnover of esterified n-3 HUFA in plasma) ([4]; subject S01): 7.4e-05 min⁻¹
Jsyn (whole body synthesis-secretion rate from circulating unesterified 18:3n-3) [4, 8]: 0.58 nmol/min
Smax (maximal first derivative of plasma total amount time-course of newly synthesized d5-n-3 HUFA) ([4]; subject S02): 0.22 nmol/min
k1 (synthesis-secretion coefficient) ([4]; subject S02): 0.12 mL/min
Time at Smax [4, 9]: 150 min
F (turnover of esterified n-3 HUFA in plasma) ([4]; subject S02): 0.0001 min⁻¹
Jsyn (whole body synthesis-secretion rate from circulating unesterified 18:3n-3) [4, 10]: 0.58 nmol/min

Plasma concentration of unesterified d5-18:3n-3 at 6 h ([4]; in vivo): 4.37 µM
Time to reach steady-state plasma concentration of infused unesterified tracer ([4]; in vivo): about 10 min
Compound: [2H]C([2H])([2H])C([2H])([2H])/C=C\C/C=C\C/C=C\CCCCCCCC(=O)O [d5-18:3n-3, d5–17, 17, 18, 18, 18-18:3n-3, reference compound]

Time at Smax ([4]; both subjects): about 200 min
Time to achieve steady-state plasma concentration of esterified d5-HUFA ([4]; both subjects): about 5 hr
Smax (maximal first derivative of plasma total amount time-course of newly synthesized d5-n-3 HUFA) ([4]; subject S01): 3.23 nmol/min
Smax (maximal first derivative of plasma total amount time-course of newly synthesized d5-n-3 HUFA) ([4]; subject S02): 2.29 nmol/min
Compound: [2H]C([2H])([2H])C([2H])([2H])/C=C\C/C=C\C/C=C\C/C=C\C/C=C\CCCC(=O)O [d5-20:5n-3]

Time first detected in plasma [4]: 40 min
Time for which plasma amount increased before leveling off ([4]; both subjects): up to 4 h
Time to achieve steady-state plasma concentration of esterified d5-HUFA ([4]; both subjects): about 5 hr
Smax (maximal first derivative of plasma total amount time-course of newly synthesized d5-n-3 HUFA) ([4]; subject S01): 2.43 nmol/min
Total esterified amount in plasma at 7 h ([4]; subject S01): 580 nmol
Time at Smax [4, 7]: 94 min
Smax (maximal first derivative of plasma total amount time-course of newly synthesized d5-n-3 HUFA) ([4]; subject S02): 4.14 nmol/min
Total esterified amount in plasma at 7 h ([4]; subject S02): 920 nmol
Time at Smax [4, 9]: 156 min
Compound: [2H]C([2H])([2H])C([2H])([2H])/C=C\C/C=C\C/C=C\C/C=C\C/C=C\CCCCCC(=O)O [d5-22:5n-3]

Time first detected in plasma [4]: 40 min
Time for which plasma amount increased before leveling off ([4]; both subjects): up to 4 h
Time to achieve steady-state plasma concentration of esterified d5-HUFA ([4]; both subjects): about 5 hr
Smax (maximal first derivative of plasma total amount time-course of newly synthesized d5-n-3 HUFA) ([4]; subject S01): 0.67 nmol/min
Total esterified amount in plasma at 7 h ([4]; subject S01): 148 nmol
Smax (maximal first derivative of plasma total amount time-course of newly synthesized d5-n-3 HUFA) ([4]; subject S02): 0.21 nmol/min
Total esterified amount in plasma at 7 h ([4]; subject S02): 44 nmol
Compound: [2H]C([2H])([2H])C([2H])([2H])/C=C\C/C=C\C/C=C\C/C=C\C/C=C\C/C=C\CCC(=O)O [d5-22:6n-3]

Compound: tetracosahexaenoic acid [THA]
Fatty acid concentration in plasma total lipids (mean) [1, 5]: 2.8 nmol/mL
Fatty acid concentration in plasma total lipids (mean) [1, 6]: 1.5 nmol/mL
Jsyn (whole-body synthesis-secretion rate) ([4]; both subjects): 0.5 to 0.6 nmol/min
Smax (maximal first derivative of plasma total amount time-course of newly synthesized d5-n-3 HUFA) ([4]; subject S01): 0.41 nmol/min
k1 (synthesis-secretion coefficient) ([4]; subject S01): 0.24 mL/min
Time at Smax [4, 7]: 102 min
F (turnover of esterified n-3 HUFA in plasma) ([4]; subject S01): 5.8e-05 min⁻¹
Jsyn (whole body synthesis-secretion rate from circulating unesterified 18:3n-3) [4, 8]: 0.61 nmol/min
Smax (maximal first derivative of plasma total amount time-course of newly synthesized d5-n-3 HUFA) ([4]; subject S02): 0.17 nmol/min
k1 (synthesis-secretion coefficient) ([4]; subject S02): 0.10 mL/min
Time at Smax [4, 9]: 125 min
F (turnover of esterified n-3 HUFA in plasma) ([4]; subject S02): 0.0001 min⁻¹
Jsyn (whole body synthesis-secretion rate from circulating unesterified 18:3n-3) [4, 10]: 0.46 nmol/min
